Source: patent publication US10118915B2, “Kappa opioid ligands” (The Scripps Research Institute, priority 2012, dated 2018)
Read-outs that look alike come from different tables or passages of the source.

Biological target: kappa opioid receptor (OPRK1) (Homo sapiens (Human), UniProt P41145)
Assay: OPRK1 antagonist assay (b-arrestin-2-TEV protease / b-lactamase reporter cell line, EC80 challenge of U-50488)
Format: cell-based
[1] = antagonist mode vs EC80 U-50488, read-out: IC50

kappa opioid receptor (OPRK1), sequence (P41145 whole entry): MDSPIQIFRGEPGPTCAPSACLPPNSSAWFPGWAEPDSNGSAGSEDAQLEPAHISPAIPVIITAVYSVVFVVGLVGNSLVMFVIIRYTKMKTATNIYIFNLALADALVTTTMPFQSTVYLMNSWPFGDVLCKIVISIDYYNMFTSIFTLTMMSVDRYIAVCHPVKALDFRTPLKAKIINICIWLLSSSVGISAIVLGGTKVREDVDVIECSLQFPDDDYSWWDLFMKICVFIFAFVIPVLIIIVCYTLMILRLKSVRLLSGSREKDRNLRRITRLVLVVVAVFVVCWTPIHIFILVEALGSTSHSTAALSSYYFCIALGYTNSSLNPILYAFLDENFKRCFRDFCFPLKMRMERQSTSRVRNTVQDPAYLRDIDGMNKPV

| IC50 [1] [µM] | SMILES | IC50 [µM] |
| --- | --- | --- |
| > 10 | Cc1cc(C#N)nc(N2CCC(N[C@@H]3CCCC[C@H]3O)CC2)c1C#N [C11] | – |
| – | COC(=O)c1cc(Br)cnc1NC1CCC(NC2CCCCC2)CC1 (centres unmarked) [C20] | > 10 |
| – | CC(C)c1noc(-c2cc(Br)cnc2N2CCC(NC3CCCCC3)CC2)n1 [C42] | > 10 |
| – | Cc1ccc2nc(N3C[C@@H]4[C@H](C3)[C@H]4NC3CCOCC3)c(-c3nc(C)no3)cc2c1 [C88] | > 10 |
| 7.16 | COC1CN(c2nc3ccccc3cc2C2=NCC(C)O2)CCC1NC1CCCCC1O (centres unmarked) [compound 258] | – |
| 0.113 | CCc1noc(-c2cc3cc(C)ccc3nc2N2CC[C@@H](NC3CCCCC3)[C@H](OC)C2)n1 [compound 335] | – |
| 1.07 | Cc1nc(-c2cc3ccc(F)cc3nc2N2CCC(NC3CCOCC3)CC2)no1 [compound 486] | – |
| 0.616 | Cc1nc(-c2cc3cc(F)ccc3nc2N2CCC(NC3CCCCCC3)CC2)no1 [compound 489] | – |
